“Also recorded” adds a separate entry of the source. Read-outs that look alike come from different tables or passages of the source.
Experiments:
[1] = system: liver cancer cell line HepG2; experiment: MTT growth inhibition / IC50 on liver cancer cell line HepG2; type: cell-based
Experimental: After growing to 80% density, the cells were trypsinized, passaged and plated in a 96-well plate with 5000 cells per well. […] After 48 hours, the absorbance at each concentration was detected by the MTT method.

[2] = system: liver cancer cell line HepG2; colorectal cancer cell line LoVo, HT29, SW620, SW480; experiment: MTT growth inhibition, Apatinib alone vs Apatinib+Sotagliflozin on tumor cell lines; type: cell-based; conditions: Apatinib 5-30 μM alone or with Sotagliflozin 20 μM, 48 hours
Description: After obtaining the effectiveness of Gefitinib in Example 1, the present disclosure further validated another VEGFR-targeting TKI drug, Apatinib. According to the tissue distribution characteristics of VEGFR and SGLT1/2, the targets of Apatinib and Sotagliflozin, the followings cells were selected for experimental verification: liver cancer cell line HepG2; colorectal cancer cell line LoVo, HT29, SW620, SW480; cervical cancer HeLa; ovarian cancer SKOV3; gastric cancer HGC27; cholangiocarcinoma RBE; esophageal cancer KYSE3, and the like. After growing to 80% density, the cells were trypsinized, passaged and plated in a 96-well plate with 5000 cells per well. After 24 hours, the medium was replaced with a medium containing the corresponding concentration of Apatinib, Sotagliflozin, or the combination of Apatinib and Sotagliflozin. After 48 hours, the absorbance at each concentration was detected by the MTT method. The experiment included the following groups: Control group: cells were cultured in normal culture medium without drug added. […] The cell growth inhibition rate was calculated by dividing the absorbance value at each concentration by the absorbance value of the control group. […] In the figures, the concentration of Apatinib is taken as the abscissa and the cell growth inhibition rate is taken as the ordinate.

lung cancer A549 cells = experiment: Tumor treatment experiment in A549 tumor cell-bearing nude mice
Experimental: After growing to the logarithmic phase, A549 cells were collected and resuspended in serum-free DMEM medium to 5×10^7 cells per ml. Each mouse was inoculated with 100 μl of 5×10^6 cells, and the tumor size was measured 19 days later. Mice were grouped according to the tumor size, and the average tumor size in each group was the same. Mice were administered after grouping.
The dose of Gefitinib was 100 mg per kilogram according to the reported dose for the treatment of A549 xenograft tumor in previous studies. The two drugs were administered by gavage, consistent with the current oral mode in clinical use. The dosing cycle was once every two days. The tumor size was measured every two days. After 40 days of administration, the test was ended, and the tumor was removed and weighed.

[3] = system: liver cancer HepG2 cells, colorectal cancer LoVo, HT29, DLD1, SW480, and HCT116 cells; experiment: Growth inhibition, Lenvatinib alone vs Sotagliflozin combined with Lenvatinib; type: cell-based; conditions: Sotagliflozin at a safe dose; variety of cell lines
Description: Therefore, the effect of the combination in the safe concentration range of Sotagliflozin is better than the effect of each single agent. It is worth mentioning that the ability of Sotagliflozin in the combination to enhance the efficacy of VEGFR-targeting TKI drugs is not limited to a single drug of Apatinib.

[4] = system: cervical cancer HeLa cells; experiment: MTT inhibitory effect of Sotagliflozin on HeLa cells; type: cell-based; conditions: 48 hours
Experimental: (§1) Prostate cancer DU145 cells, breast cancer MCF-7 cells, esophageal cancer KYSE30 cells, gastric cancer HGC-27 cells, cholangiocarcinoma RBE cells, ovarian cancer SKOV3 cells, and cervical cancer Hela cells were used to verify the inhibitory effect of Sotagliflozin on tumor cells. After growing to 80% density, the cells were trypsinized, passaged and plated in a 96-well plate with 5000 cells per well. After 24 hours, the medium was replaced with a medium containing the corresponding concentration of drug. After 48 hours, the absorbance at each concentration was detected by the MTT method.
(§2) The experiment included the following groups:
(§3) Control group: cells were cultured in normal culture medium without drug added.
(§4) Sotagliflozin test group: cells were treated by adding Sotagliflozin at different concentration to each culture medium.
(§5) After incubation, the cell growth inhibition rate was calculated by dividing the absorbance value at each concentration by the absorbance value of the control group. In the figures, the concentration of Sotagliflozin is taken as the abscissa and the cell growth inhibition rate is taken as the ordinate.

[5] = system: ovarian cancer SKOV3 cells; experiment: MTT inhibitory effect of Sotagliflozin on SKOV3 cells; type: cell-based; conditions: 48 hours
Experimental: as §1, §2, §3, §4, §5

[6] = system: esophageal cancer KYSE30 cells; experiment: MTT inhibitory effect of Sotagliflozin on KYSE30 cells; type: cell-based; conditions: 48 hours
Experimental: as §1, §2, §3, §4, §5

[7] = system: breast cancer MCF-7 cells; experiment: MTT inhibitory effect of Sotagliflozin on MCF-7 cells; type: cell-based; conditions: 48 hours
Experimental: as §1, §2, §3, §4, §5

[8] = system: gastric cancer HGC-27 cells; experiment: MTT inhibitory effect of Sotagliflozin on HGC-27 cells; type: cell-based; conditions: 48 hours
Experimental: as §1, §2, §3, §4, §5

[9] = system: lung cancer cell line A549; experiment: MTT growth inhibition / IC50 on lung cancer cell line A549; type: cell-based
Description: According to the tissue distribution characteristics of EGFR and SGLT1/2, the targets of Gefitinib and Sotagliflozin, the followings cells were selected for experimental verification: lung cancer cell line A549; colorectal cancer cell line LoVo, HT29, SW620, HCT116; cervical cancer HeLa; ovarian cancer SKOV3; gastric cancer HGC27; cholangiocarcinoma RBE; esophageal cancer KYSE30, and the like. After growing to 80% density, the cells were trypsinized, passaged and plated in a 96-well plate with 5000 cells per well. After 24 hours, the medium was replaced with a medium containing the corresponding concentration of drug. After 48 hours, the absorbance at each concentration was detected by the MTT method.
as §2
Sotagliflozin test group (FIG. 2-a-2): cells were treated by adding Sotagliflozin alone at 6 different concentrations, 0 μM, 10 μM, 30 μM, 40 μM, […] respectively, to the culture medium, and cell survival rate was measured after […] of incubation.

[10] = system: normal human umbilical cord epithelial cells
[11] = system: cholangiocarcinoma RBE cells; experiment: MTT inhibitory effect of Sotagliflozin on RBE cells; type: cell-based; conditions: 48 hours
Experimental: as §1, §2, §3, §4, §5

[12] = system: prostate cancer DU145 cells; experiment: MTT inhibitory effect of Sotagliflozin on DU145 cells; type: cell-based; conditions: 48 hours
Experimental: as §1, §2, §3, §4, §5

[13] = A549 tumor-bearing nude mice, gavage once every two days, 40 days

N#CC1(c2ccc(NC(=O)c3cccnc3NCc3ccncc3)cc2)CCCC1 [Apatinib]
IC50 ([1]; Homo sapiens, HepG2, Apatinib alone, cell survival rate after 2 h of incubation, read-out: IC50 value on HepG2 cells): 46 µM
inhibitory effect on tumor cells (cell growth inhibition rate) [2]: limited

COc1cc2ncnc(Nc3ccc(F)c(Cl)c3)c2cc1OCCCN1CCOCC1 [Gefitinib]
Average tumor volume (lung cancer A549 cells; mouse, in vivo): 504.8
Tumor volume ratio of each group to the control group (lung cancer A549 cells; mouse, in vivo): 0.4881

COc1cc2nccc(Oc3ccc(NC(=O)NC4CC4)c(Cl)c3)c2cc1C(N)=O [Lenvatinib]
effect of addition of Sotagliflozin on inhibitory effect of Lenvatinib [3]: enhanced the inhibitory effect

Sotagliflozin
IC50 [4]: 82.1 µM
IC50 ([1]; Sotagliflozin alone, liver cancer HepG2 cells, summary value, read-out: IC50): 116 µM
IC50 ([1]; Sotagliflozin alone, cell survival rate after 2 h of incubation, read-out: IC50 value on HepG2 cells): 116 µM
IC50 [5]: 84.5 µM
IC50 [6]: 82.3 µM
IC50 [7]: 64.8 µM
IC50 [8]: 48.5 µM
IC50 ([9]; Sotagliflozin alone, lung cancer A549 cells, summary value, read-out: IC50): 71.6 µM
IC50 ([9]; single agent alone, cell survival rate after 1 h of incubation, read-out: IC50 value on A549 cells): 73 µM
concentration at which mainly cell growth inhibition effect is exhibited [10]: lower than 8 μM
concentration producing great cytotoxicity [10]: higher than 80 μM
IC50 [11]: 182 µM
Tumor growth inhibition rate (lung cancer A549 cells; [13]): 58.4
Tumor volume ratio of each group to the control group (lung cancer A549 cells; [13]): 0.416
Average tumor volume (lung cancer A549 cells; A549 tumor-bearing nude mice, gavage once every two days, 40 days, Sotagliflozin 30 mg/kg, Gefitinib 100 mg per kilogram): 430.3
inhibitory effect on tumor volume / tumor growth (lung cancer A549 cells; tumor-bearing mice): can inhibit tumor growth; also recorded: good inhibitory effect on tumor volume
IC50 [12]: 40.8 µM

— US20220313652A1, “USE OF COMPOUND OR PHARMACEUTICALLY ACCEPTABLE SALT, DIMER OR TRIMER THEREOF IN MANUFACTURE OF MEDICAMENT FOR TREATING CANCER” (priority 2020, published 2022)
